Experimental findings from PMC10682951, “Structure-function and rational design of a spider toxin Ssp1a at human voltage-gated sodium channel subtypes” (Frontiers in Pharmacology, 2023) are described below.

Format in all cases: cell-based
One test concerns the target T1, hNaV1.2 (Homo sapiens, UniProt Q99250).
T1 construct: host or cells: HEK293
The test is described as follows: Automated whole-cell patch-clamp (QPatch 16X), hNaV1.2. Particulars: for IC50: HEK293 cells expressing hNaV1.2 + β1 subunit, QPatch 16X, holding −80 mV, step to 0 mV, peptide incubated 2 min, 0.1% BSA, mean, SEM and n (2-7); for Loss (reduction) in potency vs rSsp1a at hNaV1.2: relative to wild type rSsp1a. The method in brief: (§1)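 HEK293 cells stably expressing the channel (human subtypes with β1 subunit), held at −80 mV; 2 min peptide pre-incubation, then 20 ms steps to 0 mV after a 200 ms −120 mV conditioning pulse. Extracellular pH 7.3 with 20 mM TEA-Cl, CsF-based pipette solution, 0.1% BSA; IC50 from four-parameter Hill fit.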

The target of the next test is T2, hNaV1.3 (Homo sapiens, UniProt Q9NY46).
T2 construct: host or cells: HEK293
As to the kind of experiment: Automated whole-cell patch-clamp (QPatch 16X), hNaV1.3. The settings on record: for IC50: HEK293 cells expressing hNaV1.3 + β1 subunit, QPatch 16X, holding −80 mV, step to 0 mV, peptide incubated 2 min, 0.1% BSA, mean, SEM and n (3-12). The procedure, abridged:
as §1

In a further test the target is T3, hNaV1.7 (Homo sapiens, UniProt Q15858).
T3 construct: host or cells: HEK293
The test is described as follows: Automated whole-cell patch-clamp (QPatch 16X), hNaV1.7. The settings on record: for IC50: HEK293 cells expressing hNaV1.7 + β1 subunit, QPatch 16X, holding −80 mV, step to 0 mV, peptide incubated 2 min, 0.1% BSA, mean, SEM and n (3-9); for Loss (reduction) in potency vs rSsp1a at hNaV1.7: relative to wild type rSsp1a. The method in brief: as §1

Bridge positions count the residues as written; N and C are the ends. Peptide text beside a SMILES is read from it. Where only a bound is given, the exact number is not on record here.

T1 sequence (Q07699 19-218): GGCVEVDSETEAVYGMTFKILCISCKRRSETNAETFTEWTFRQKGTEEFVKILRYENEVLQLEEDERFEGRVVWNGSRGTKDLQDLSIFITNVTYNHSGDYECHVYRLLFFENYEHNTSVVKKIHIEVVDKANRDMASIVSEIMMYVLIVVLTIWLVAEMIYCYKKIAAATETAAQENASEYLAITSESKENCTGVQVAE
T1 sequence (Q99250 whole entry): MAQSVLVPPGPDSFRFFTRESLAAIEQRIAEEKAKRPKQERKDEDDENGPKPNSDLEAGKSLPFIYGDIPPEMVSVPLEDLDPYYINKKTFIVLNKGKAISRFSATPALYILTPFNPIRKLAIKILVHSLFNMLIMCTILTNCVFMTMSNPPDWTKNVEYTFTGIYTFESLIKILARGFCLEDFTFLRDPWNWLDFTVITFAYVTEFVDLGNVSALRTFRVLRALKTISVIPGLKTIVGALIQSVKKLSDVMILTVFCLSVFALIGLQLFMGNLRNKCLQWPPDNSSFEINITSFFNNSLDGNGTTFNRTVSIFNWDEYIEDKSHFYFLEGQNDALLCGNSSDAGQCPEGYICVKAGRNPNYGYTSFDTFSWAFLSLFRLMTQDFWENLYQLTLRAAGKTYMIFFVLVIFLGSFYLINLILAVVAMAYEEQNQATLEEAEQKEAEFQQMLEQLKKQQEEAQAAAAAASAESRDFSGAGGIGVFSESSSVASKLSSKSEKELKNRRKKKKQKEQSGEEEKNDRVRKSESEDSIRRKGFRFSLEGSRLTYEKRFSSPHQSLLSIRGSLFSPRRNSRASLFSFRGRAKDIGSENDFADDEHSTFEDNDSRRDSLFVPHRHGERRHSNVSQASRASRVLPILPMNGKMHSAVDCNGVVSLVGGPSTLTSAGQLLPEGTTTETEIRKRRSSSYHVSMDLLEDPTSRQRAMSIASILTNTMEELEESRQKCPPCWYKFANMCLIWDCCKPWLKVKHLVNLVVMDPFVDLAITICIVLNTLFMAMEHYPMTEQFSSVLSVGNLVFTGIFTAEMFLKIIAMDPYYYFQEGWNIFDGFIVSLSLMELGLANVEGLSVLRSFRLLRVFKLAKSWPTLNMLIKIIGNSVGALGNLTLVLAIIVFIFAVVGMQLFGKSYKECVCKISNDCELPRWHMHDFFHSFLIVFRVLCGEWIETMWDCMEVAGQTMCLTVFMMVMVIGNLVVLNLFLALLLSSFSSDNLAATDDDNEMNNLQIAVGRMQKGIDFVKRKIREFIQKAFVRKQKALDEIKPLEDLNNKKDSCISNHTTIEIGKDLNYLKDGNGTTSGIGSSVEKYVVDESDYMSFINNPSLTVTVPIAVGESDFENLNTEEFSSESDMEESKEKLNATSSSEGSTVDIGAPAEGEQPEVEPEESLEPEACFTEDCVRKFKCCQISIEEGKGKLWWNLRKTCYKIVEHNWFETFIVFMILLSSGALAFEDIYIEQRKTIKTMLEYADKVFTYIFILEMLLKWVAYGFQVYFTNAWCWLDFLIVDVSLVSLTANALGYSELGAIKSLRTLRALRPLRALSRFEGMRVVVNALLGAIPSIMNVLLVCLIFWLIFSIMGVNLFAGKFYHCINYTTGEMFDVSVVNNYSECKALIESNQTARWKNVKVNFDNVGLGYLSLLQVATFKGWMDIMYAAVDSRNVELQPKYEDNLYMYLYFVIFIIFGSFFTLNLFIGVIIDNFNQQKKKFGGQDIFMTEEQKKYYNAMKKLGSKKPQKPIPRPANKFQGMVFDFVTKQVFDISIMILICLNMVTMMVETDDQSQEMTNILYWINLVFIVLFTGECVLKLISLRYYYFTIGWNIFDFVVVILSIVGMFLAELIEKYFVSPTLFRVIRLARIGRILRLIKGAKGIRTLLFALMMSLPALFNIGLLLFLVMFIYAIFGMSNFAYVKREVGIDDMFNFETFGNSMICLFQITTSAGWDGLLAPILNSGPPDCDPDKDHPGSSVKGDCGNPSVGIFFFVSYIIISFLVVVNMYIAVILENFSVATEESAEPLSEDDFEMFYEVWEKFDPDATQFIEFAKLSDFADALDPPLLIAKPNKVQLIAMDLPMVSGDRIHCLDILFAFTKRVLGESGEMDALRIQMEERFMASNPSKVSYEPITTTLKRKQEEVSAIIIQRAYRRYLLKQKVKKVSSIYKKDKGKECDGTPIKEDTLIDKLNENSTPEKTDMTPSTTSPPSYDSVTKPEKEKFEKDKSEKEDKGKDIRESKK
T2 sequence (Q9NY46 whole entry): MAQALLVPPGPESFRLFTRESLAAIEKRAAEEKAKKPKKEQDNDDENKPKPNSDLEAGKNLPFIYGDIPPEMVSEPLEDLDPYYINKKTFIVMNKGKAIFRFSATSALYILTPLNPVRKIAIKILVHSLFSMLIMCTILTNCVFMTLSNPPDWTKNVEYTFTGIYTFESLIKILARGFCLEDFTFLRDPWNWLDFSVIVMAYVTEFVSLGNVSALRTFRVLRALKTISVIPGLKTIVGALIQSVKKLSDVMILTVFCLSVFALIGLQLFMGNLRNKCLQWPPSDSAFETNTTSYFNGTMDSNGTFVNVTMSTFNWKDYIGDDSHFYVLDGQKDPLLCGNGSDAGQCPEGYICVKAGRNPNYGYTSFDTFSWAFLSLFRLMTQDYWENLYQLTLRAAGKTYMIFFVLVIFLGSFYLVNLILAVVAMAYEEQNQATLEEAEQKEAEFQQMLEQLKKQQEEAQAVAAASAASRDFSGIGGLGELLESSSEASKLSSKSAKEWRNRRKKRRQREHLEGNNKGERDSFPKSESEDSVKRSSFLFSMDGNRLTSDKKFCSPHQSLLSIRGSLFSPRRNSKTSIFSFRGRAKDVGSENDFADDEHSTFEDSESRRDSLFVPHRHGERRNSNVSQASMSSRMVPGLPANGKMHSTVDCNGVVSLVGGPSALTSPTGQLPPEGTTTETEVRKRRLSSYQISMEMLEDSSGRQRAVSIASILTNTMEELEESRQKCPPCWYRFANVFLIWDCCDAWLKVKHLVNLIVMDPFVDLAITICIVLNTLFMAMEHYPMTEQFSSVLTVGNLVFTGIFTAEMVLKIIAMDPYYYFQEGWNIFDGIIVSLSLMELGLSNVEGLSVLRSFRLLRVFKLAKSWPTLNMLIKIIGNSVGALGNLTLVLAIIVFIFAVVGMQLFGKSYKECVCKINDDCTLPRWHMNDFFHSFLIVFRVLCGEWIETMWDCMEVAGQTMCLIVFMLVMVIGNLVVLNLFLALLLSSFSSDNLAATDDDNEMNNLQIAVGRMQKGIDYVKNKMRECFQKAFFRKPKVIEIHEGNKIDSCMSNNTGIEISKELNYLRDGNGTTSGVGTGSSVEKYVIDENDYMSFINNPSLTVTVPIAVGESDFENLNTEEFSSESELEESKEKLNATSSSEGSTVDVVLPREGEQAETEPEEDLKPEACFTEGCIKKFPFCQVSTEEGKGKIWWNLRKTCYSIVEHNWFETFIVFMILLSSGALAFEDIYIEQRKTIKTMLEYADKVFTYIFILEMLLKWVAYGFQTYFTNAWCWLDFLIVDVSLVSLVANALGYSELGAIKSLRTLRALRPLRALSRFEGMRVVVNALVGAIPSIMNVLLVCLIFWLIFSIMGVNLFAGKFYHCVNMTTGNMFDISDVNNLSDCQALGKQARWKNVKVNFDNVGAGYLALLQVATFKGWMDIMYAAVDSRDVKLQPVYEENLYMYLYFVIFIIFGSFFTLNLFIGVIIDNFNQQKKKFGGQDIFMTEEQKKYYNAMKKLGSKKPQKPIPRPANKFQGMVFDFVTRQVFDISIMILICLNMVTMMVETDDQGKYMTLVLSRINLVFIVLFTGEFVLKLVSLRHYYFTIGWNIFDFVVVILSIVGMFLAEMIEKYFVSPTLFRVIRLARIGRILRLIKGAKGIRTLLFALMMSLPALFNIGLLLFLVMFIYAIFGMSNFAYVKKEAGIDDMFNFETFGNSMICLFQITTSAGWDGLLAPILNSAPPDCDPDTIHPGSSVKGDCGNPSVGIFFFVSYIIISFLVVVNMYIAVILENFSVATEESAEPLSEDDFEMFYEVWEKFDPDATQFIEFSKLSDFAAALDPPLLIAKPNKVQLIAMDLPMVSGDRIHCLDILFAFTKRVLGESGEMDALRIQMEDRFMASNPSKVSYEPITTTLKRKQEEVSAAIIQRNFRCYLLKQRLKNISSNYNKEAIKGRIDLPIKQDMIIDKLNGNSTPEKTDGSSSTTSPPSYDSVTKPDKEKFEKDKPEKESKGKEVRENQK
T2 sequence (Q07699 19-218, further chain): as the sequence (Q07699 19-218) above

Consider `CC(C)C[C@H](NC(=O)[C@H](CC(=O)O)NC(=O)[C@H](Cc1ccc(O)cc1)NC(=O)[C@H](CCCNC(=N)N)NC(=O)[C@@H]1CSSC[C@@H]2NC(=O)[C@H](CCCCN)NC(=O)[C@H](CC(N)=O)NC(=O)[C@H](CC(N)=O)NC(=O)[C@H](CC(N)=O)NC(=O)[C@@H]3CCCN3C(=O)[C@H](CC(=O)O)NC(=O)[C@@H]3CSSC[C@H](NC(=O)[C@H](C(C)C)NC(=O)[C@H](Cc4ccc(O)cc4)NC(=O)CNC(=O)[C@H](CCC(=O)O)NC(=O)[C@H](CSSC[C@H](NC(=O)[C@H](CC(=O)O)NC(=O)CN)C(=O)N[C@@H](CC(C)C)C(=O)NCC(=O)N[C@@H](C)C(=O)N[C@@H](Cc4ccccc4)C(=O)N[C@@H](CO)C(=O)NCC(=O)N3)NC2=O)C(=O)N[C@@H](Cc2c[nH]cn2)C(=O)N[C@@H](Cc2c[nH]c3ccccc23)C(=O)N[C@@H](CCCCN)C(=O)N[C@@H](Cc2ccc(O)cc2)C(=O)N2CCC[C@H]2C(=O)N[C@@H](Cc2c[nH]c3ccccc23)C(=O)N1)C(=O)O` [W5A] (H-GDCLGAFSGCDPNNNKCCEGYVCHWKYPWCRYDL-OH; disulfide 3-18, 10-23, 17-30 (inferred); N-terminus and C-terminus assumed), for which, at hNaV1.2, the IC50 is greater than 1000 nM and the “Loss (reduction) in potency vs rSsp1a at hNaV1.2” value (“Loss (reduction) … at hNaV1.2” below) is no less than 10 fold. In addition, at hNaV1.3, the IC50 is greater than 1000 nM. On hNaV1.7, the IC50 is greater than 1000 nM and the “Loss (reduction) in potency vs rSsp1a at hNaV1.7” value (shortened to “Loss (reduction) … at hNaV1.7”) is given as no less than 10 fold.

For `CC(C)C[C@H](NC(=O)[C@H](CC(=O)O)NC(=O)[C@H](Cc1ccc(O)cc1)NC(=O)[C@H](CCCNC(=N)N)NC(=O)[C@@H]1CSSC[C@@H]2NC(=O)[C@H](CCCCN)NC(=O)[C@H](CC(=O)O)NC(=O)[C@H](CC(N)=O)NC(=O)[C@H](CC(N)=O)NC(=O)[C@@H]3CCCN3C(=O)[C@H](CC(=O)O)NC(=O)[C@@H]3CSSC[C@H](NC(=O)[C@H](C(C)C)NC(=O)[C@H](Cc4ccc(O)cc4)NC(=O)CNC(=O)[C@H](CCC(=O)O)NC(=O)[C@H](CSSC[C@H](NC(=O)[C@H](CC(=O)O)NC(=O)CN)C(=O)N[C@@H](CC(C)C)C(=O)NCC(=O)N[C@@H](Cc4ccccc4)C(=O)N[C@@H](Cc4ccccc4)C(=O)N[C@@H](CO)C(=O)NCC(=O)N3)NC2=O)C(=O)N[C@@H](Cc2c[nH]cn2)C(=O)N[C@@H](Cc2c[nH]c3ccccc23)C(=O)N[C@@H](CCCCN)C(=O)N[C@@H](Cc2ccc(O)cc2)C(=O)N2CCC[C@H]2C(=O)N[C@@H](Cc2c[nH]c3ccccc23)C(=O)N1)C(=O)O` [W5F/N14D] (H-GDCLGFFSGCDPNNDKCCEGYVCHWKYPWCRYDL-OH; disulfide 3-18, 10-23, 17-30), the IC50 was 735 nM at hNaV1.2, 1200 nM at hNaV1.3 and 391 nM at hNaV1.7.

As for `CC(C)C[C@H](NC(=O)[C@H](CC(=O)O)NC(=O)[C@H](Cc1ccc(O)cc1)NC(=O)[C@H](CCCNC(=N)N)NC(=O)[C@@H]1CSSC[C@@H]2NC(=O)[C@H](CCCCN)NC(=O)[C@H](CC(N)=O)NC(=O)[C@H](CC(N)=O)NC(=O)[C@H](CC(N)=O)NC(=O)[C@@H]3CCCN3C(=O)[C@H](CC(=O)O)NC(=O)[C@@H]3CSSC[C@H](NC(=O)[C@H](C(C)C)NC(=O)[C@H](Cc4ccc(O)cc4)NC(=O)CNC(=O)[C@H](CCC(=O)O)NC(=O)[C@H](CSSC[C@H](NC(=O)[C@H](CC(=O)O)NC(=O)CN)C(=O)N[C@@H](CC(C)C)C(=O)NCC(=O)N[C@@H](Cc4ccccc4)C(=O)N[C@@H](Cc4ccccc4)C(=O)N[C@@H](CO)C(=O)NCC(=O)N3)NC2=O)C(=O)N[C@@H](Cc2c[nH]cn2)C(=O)N[C@@H](Cc2c[nH]c3ccccc23)C(=O)N[C@@H](CCCCN)C(=O)N[C@@H](Cc2ccc(O)cc2)C(=O)N2CCC[C@H]2C(=O)N[C@@H](Cc2c[nH]c3ccccc23)C(=O)N1)C(=O)O` [W5F], the IC50 at hNaV1.2 is 579 nM; on hNaV1.3, greater than 3000 nM; at hNaV1.7 it was 1260 nM.

In the case of `CC(C)C[C@H](NC(=O)[C@H](CC(=O)O)NC(=O)[C@H](Cc1ccc(O)cc1)NC(=O)[C@H](CCCNC(=N)N)NC(=O)[C@@H]1CSSC[C@@H]2NC(=O)[C@H](CCCCN)NC(=O)[C@H](CC(N)=O)NC(=O)[C@H](CC(N)=O)NC(=O)[C@H](CC(N)=O)NC(=O)[C@@H]3CCCN3C(=O)[C@H](CC(=O)O)NC(=O)[C@@H]3CSSC[C@H](NC(=O)[C@H](C(C)C)NC(=O)[C@H](Cc4ccc(O)cc4)NC(=O)CNC(=O)[C@H](CCC(=O)O)NC(=O)[C@H](CSSC[C@H](NC(=O)[C@H](CC(=O)O)NC(=O)CN)C(=O)N[C@@H](CC(C)C)C(=O)NCC(=O)N[C@@H](Cc4c[nH]c5ccccc45)C(=O)N[C@@H](Cc4ccccc4)C(=O)N[C@@H](CO)C(=O)NCC(=O)N3)NC2=O)C(=O)N[C@@H](Cc2c[nH]cn2)C(=O)N[C@@H](C)C(=O)N[C@@H](CCCCN)C(=O)N[C@@H](Cc2ccc(O)cc2)C(=O)N2CCC[C@H]2C(=O)N[C@@H](Cc2c[nH]c3ccccc23)C(=O)N1)C(=O)O` [W24A] (H-GDCLGWFSGCDPNNNKCCEGYVCHAKYPWCRYDL-OH; disulfide 3-18, 10-23, 17-30 (inferred); N-terminus and C-terminus assumed), the IC50 at hNaV1.2, at hNaV1.3 and on hNaV1.7 was greater than 1000 nM throughout. The “Loss (reduction) … at hNaV1.2” value on hNaV1.2 is reported as no less than 10 fold. In addition, the “Loss (reduction) … at hNaV1.7” value on hNaV1.7 was no less than 10 fold.

Turning to `CC(C)C[C@H](NC(=O)[C@H](CC(=O)O)NC(=O)[C@H](Cc1ccc(O)cc1)NC(=O)[C@H](CCCNC(=N)N)NC(=O)[C@@H]1CSSC[C@@H]2NC(=O)[C@H](CCCCN)NC(=O)[C@H](CC(N)=O)NC(=O)[C@H](CC(N)=O)NC(=O)[C@H](CC(N)=O)NC(=O)[C@@H]3CCCN3C(=O)[C@H](CC(=O)O)NC(=O)[C@@H]3CSSC[C@H](NC(=O)[C@H](C(C)C)NC(=O)[C@H](Cc4ccc(O)cc4)NC(=O)CNC(=O)[C@H](CCC(=O)O)NC(=O)[C@H](CSSC[C@H](NC(=O)[C@H](CC(=O)O)NC(=O)CN)C(=O)N[C@@H](CC(C)C)C(=O)NCC(=O)N[C@@H](Cc4c[nH]c5ccccc45)C(=O)N[C@@H](Cc4ccccc4)C(=O)N[C@@H](CO)C(=O)NCC(=O)N3)NC2=O)C(=O)N[C@@H](Cc2c[nH]cn2)C(=O)N[C@@H](CCCNC(=N)N)C(=O)N[C@@H](CCCCN)C(=O)N[C@@H](Cc2ccc(O)cc2)C(=O)N2CCC[C@H]2C(=O)N[C@@H](Cc2c[nH]c3ccccc23)C(=O)N1)C(=O)O` [W24R], the inhibition at 3 µM is roughly 65% against hNaV1.2 (3 µM peptide, QPatch, partial inhibition); roughly 75% at hNaV1.3 (3 µM peptide, QPatch, read-out: Inhibition (block) of hNaV1.3 at 3 µM); roughly 50% against hNaV1.7 (3 µM peptide, QPatch). Besides, the figures for the IC50 at hNaV1.2, on hNaV1.3 and at hNaV1.7 were 423 nM, 1190 nM and greater than 3000 nM, respectively.

Take `CC(C)C[C@H](NC(=O)[C@H](CC(=O)O)NC(=O)[C@H](Cc1ccc(O)cc1)NC(=O)[C@H](CCCNC(=N)N)NC(=O)[C@@H]1CSSC[C@@H]2NC(=O)[C@H](CCCCN)NC(=O)[C@H](CC(N)=O)NC(=O)[C@H](CC(N)=O)NC(=O)[C@H](CC(N)=O)NC(=O)[C@@H]3CCCN3C(=O)[C@H](CC(=O)O)NC(=O)[C@@H]3CSSC[C@H](NC(=O)[C@H](C(C)C)NC(=O)[C@H](Cc4ccc(O)cc4)NC(=O)CNC(=O)[C@H](CCC(=O)O)NC(=O)[C@H](CSSC[C@H](NC(=O)[C@H](CC(=O)O)NC(=O)CN)C(=O)N[C@@H](CC(C)C)C(=O)NCC(=O)N[C@@H](Cc4c[nH]c5ccccc45)C(=O)N[C@@H](Cc4ccccc4)C(=O)N[C@@H](CO)C(=O)NCC(=O)N3)NC2=O)C(=O)N[C@@H](Cc2c[nH]cn2)C(=O)N[C@@H](CO)C(=O)N[C@@H](CCCCN)C(=O)N[C@@H](Cc2ccc(O)cc2)C(=O)N2CCC[C@H]2C(=O)N[C@@H](Cc2c[nH]c3ccccc23)C(=O)N1)C(=O)O` [W24S]: the IC50 on hNaV1.2 was 1460 nM; on hNaV1.3 it was greater than 3000 nM; on hNaV1.7, greater than 3000 nM.

With `CC(C)C[C@H](NC(=O)[C@H](CC(=O)O)NC(=O)[C@H](Cc1ccc(O)cc1)NC(=O)[C@H](CCCNC(=N)N)NC(=O)[C@@H]1CSSC[C@@H]2NC(=O)[C@H](CCCCN)NC(=O)[C@H](CC(N)=O)NC(=O)[C@H](CC(N)=O)NC(=O)[C@H](CC(N)=O)NC(=O)[C@@H]3CCCN3C(=O)[C@H](CC(=O)O)NC(=O)[C@@H]3CSSC[C@H](NC(=O)[C@H](C(C)C)NC(=O)[C@H](Cc4ccc(O)cc4)NC(=O)CNC(=O)[C@H](CCC(=O)O)NC(=O)[C@H](CSSC[C@H](NC(=O)[C@H](CC(=O)O)NC(=O)CN)C(=O)N[C@@H](CC(C)C)C(=O)NCC(=O)N[C@@H](Cc4c[nH]c5ccccc45)C(=O)N[C@@H](Cc4ccccc4)C(=O)N[C@@H](CO)C(=O)NCC(=O)N3)NC2=O)C(=O)N[C@@H](Cc2c[nH]cn2)C(=O)N[C@@H](Cc2c[nH]c3ccccc23)C(=O)N[C@@H](CCCCN)C(=O)N[C@@H](Cc2ccc(O)cc2)C(=O)N2CCC[C@H]2C(=O)N[C@@H](C)C(=O)N1)C(=O)O` [W28A] (H-GDCLGWFSGCDPNNNKCCEGYVCHWKYPACRYDL-OH; disulfide 3-18, 10-23, 17-30 (inferred); N-terminus and C-terminus assumed), at hNaV1.2, the IC50 is greater than 3000 nM and the “Loss (reduction) … at hNaV1.2” value is no less than 10 fold. Besides, the IC50 at hNaV1.3 was greater than 3000 nM. Moreover, at hNaV1.7, the IC50 is greater than 3000 nM and the “Loss (reduction) … at hNaV1.7” value is recorded as no less than 10 fold.
